Results taken from article PMC7611906 (Nature chemical biology, 2021).

Tested on: caspase 3/7 in 22Rv1 cells
Assay: Caspase-Glo 3/7 assay 22Rv1
Type: cell-based
Details: read-out: EC50 Caspase-Glo 3/7, 24h

**Q.** `Cc1ncsc1-c1ccc([C@H](C)NC(=O)[C@@H]2C[C@@H](O)CN2C(=O)[C@@H](NC(=O)COCCCOCCNC(=O)C[C@@H]2N=C(c3ccc(Cl)cc3)c3c(sc(C)c3C)-n3c(C)nnc32)C(C)(C)C)cc1` [ARV-771] was tested. Which EC50 did it give?
**A.** 90 nM
